± gives the standard deviation of the averaged measurements.
Tests used:
Experiment in all cases: level (log10 ratio to DMSO vehicle control); higher = higher biomarker level / cell amount than vehicle control
[1] = compound: O=C(O)C(F)(OC(F)(F)C(F)(OC(F)(F)C(F)(OC(F)(F)C(F)(F)C(F)(F)F)C(F)(F)F)C(F)(F)F)C(F)(F)F [Perfluoro-(2,5,8-trimethyl-3,6,9-trioxadodecanoic)acid] (in DMSO)
Procedure: (§1)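 BioMAP Diversity Plus panel of 12 human primary cell co-culture systems (3C, 4H, LPS, SAg, BT, BF4T, BE3C, CASM3C, HDF3CGF, KF3CT, MyoF, Mphg). Compounds were added 1 h before stimulation and left for 24 h (MyoF 48 h; BT 72 h for soluble read-outs or 6 d for IgG). Biomarkers were read by ELISA, cytotoxicity by SRB, PBMC viability and proliferation by Alamar Blue. Each well value was divided by the mean of 8 DMSO control wells on the same plate and log10 transformed; duplicate blinded samples were tested at 4 concentrations.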

[2] = compound: O=C(O)C(F)(F)OC(F)(F)C(F)(F)OC(F)(F)C(F)(F)OC(F)(F)C(F)(F)C(F)(F)C(F)(F)F [Perfluoro-3,6,9-trioxatridecanoic acid] (in DMSO); conditions: 6700 nM
Procedure: as §1

[3] = compound: C[C@@H]1C[C@H]2[C@@H]3CCC4=CC(=O)C=C[C@]4(C)[C@@]3(F)[C@@H](O)C[C@]2(C)[C@@]1(O)C(=O)COP(=O)(O)O [Dexamethasone sodium phosphate] (in DMSO)
Procedure: as §1

[4] = compound: OCCC(F)(F)C(F)(F)C(F)(F)C(F)(F)F [4:2 Fluorotelomer alcohol] (in DMSO)
Procedure: as §1

[5] = compound: CN(C(=O)C(F)(F)C(F)(F)C(F)(F)F)[Si](C)(C)C [N-Methyl-N-trimethylsilylheptafluorobutyramide] (in DMSO)
Procedure: as §1

[6] = compound: CO[Si](C)(CCC(F)(F)C(F)(F)C(F)(F)C(F)(F)C(F)(F)C(F)(F)F)OC [Dimethoxymethyl((perfluorohexyl)ethyl)silane] (in DMSO)
Procedure: as §1

[7] = compound: O=C(O)C=C(C(F)(F)F)C(F)(F)F [3,3-Bis(trifluoromethyl)-2-propenoic acid] (in DMSO)
Procedure: as §1

Perfluoroundecanoic acid = compound: O=C(O)C(F)(F)C(F)(F)C(F)(F)C(F)(F)C(F)(F)C(F)(F)C(F)(F)C(F)(F)C(F)(F)C(F)(F)F [Perfluoroundecanoic acid] (in DMSO); conditions: 6700 nM
Procedure: as §1

Row | Test System | level (log10) ([1]; 1100 nM) | level (log10) ([1]; 3300 nM) | level (log10) ([1]; 10000 nM) | level (log10) [2] | level (log10) ([3]; 1500 nM) | level (log10) ([3]; 4400 nM) | level (log10) ([3]; 13000 nM) | level (log10) ([3]; 40000 nM) | level (log10) ([4]; 6700 nM) | level (log10) ([4]; 20000 nM) | level (log10) ([4]; 60000 nM) | level (log10) ([5]; 6700 nM) | level (log10) ([5]; 20000 nM) | level (log10) ([5]; 60000 nM) | level (log10) ([6]; 6700 nM) | level (log10) ([6]; 20000 nM) | level (log10) ([7]; 6700 nM) | level (log10) ([7]; 20000 nM) | level (log10) ([7]; 60000 nM) | level (log10) (Perfluoroundecanoic acid)
1 | HDF3CGF:CXCL10/IP-10 | 0 ± 0.0085 | -0.01 ± 0.0085 | 0.0185 ± 0.026 | -0.3805 ± 0.00071 | 0.034 ± 0.025 | 0.0615 ± 0.052 | 0.06 ± 0.057 | 0.009 ± 0.072 | -0.0075 ± 0.025 | -0.002 ± 0.023 | -0.0095 ± 0.0035 | 0.0155 ± 0.00071 | 0.0165 ± 0.013 | 0.005 ± 0.0028 | -0.0105 ± 0.026 | -0.0165 ± 0.035 | -0.0175 ± 0.005 | -0.0445 ± 0.005 | -0.04 ± 0.025 | -0.144 ± 0.0092
2 | HDF3CGF:CXCL11/I-TAC | -0.0015 ± 0.011 | 0.003 ± 0.014 | -0.0265 ± 0.033 | -0.149 ± 0.013 | 0.0425 ± 0.00071 | 0.079 ± 0.082 | 0.0905 ± 0.012 | 0.0355 ± 0.087 | -0.039 ± 0.035 | 0.011 ± 0.0014 | -0.0275 ± 0.029 | -0.0135 ± 0.0035 | -0.015 ± 0.0099 | -0.03 | -0.026 | -0.035 ± 0.014 | -0.038 ± 0.011 | -0.0555 ± 0.035 | -0.033 ± 0.054 | -0.062 ± 0.024
3 | HDF3CGF:Collagen I | 0.027 ± 0.0028 | -0.014 ± 0.051 | 0.0475 ± 0.013 | -0.0565 ± 0.061 | -0.0005 ± 0.1 | -0.016 ± 0.047 | -0.0155 ± 0.023 | 0.0075 ± 0.005 | -0.0205 ± 0.0078 | -0.0025 ± 0.0092 | 0.0475 ± 0.05 | -0.058 ± 0.021 | -0.0195 ± 0.053 | -0.0335 ± 0.039 | 0.0095 ± 0.077 | 0.052 ± 0.038 | -0.031 ± 0.0028 | -0.041 ± 0.02 | -0.03 ± 0.038 | -0.0645 ± 0.03
4 | HDF3CGF:Collagen III | -0.064 ± 0.072 | 0.014 ± 0.048 | 0.0695 ± 0.023 | -0.236 ± 0.028 | -0.0625 ± 0.12 | -0.048 ± 0.052 | -0.079 ± 0.05 | -0.0675 ± 0.056 | -0.055 ± 0.068 | -0.0105 ± 0.0092 | 0.0335 ± 0.03 | 0.0005 ± 0.00071 | -0.0175 ± 0.005 | -0.0675 ± 0.037 | -0.022 ± 0.035 | -0.0165 ± 0.07 | -0.0905 ± 0.012 | -0.0985 ± 0.029 | -0.0635 ± 0.069 | -0.049 ± 0.05
5 | HDF3CGF:EGFR | -0.0365 ± 0.15 | -0.113 ± 0.16 | 0.025 ± 0.04 | -0.101 ± 0.023 | -0.0145 ± 0.086 | -0.043 ± 0.071 | -0.039 ± 0.076 | 0.019 ± 0.014 | -0.0285 ± 0.028 | -0.001 ± 0.072 | 0.0275 ± 0.053 | -0.0055 ± 0.005 | -0.005 | 0.0195 ± 0.0092 | -0.0055 ± 0.005 | 0 ± 0.018 | -0.02 ± 0.041 | -0.039 ± 0.05 | -0.0145 ± 0.0035 | -0.162 ± 0.0014
6 | HDF3CGF:M-CSF | 0.0165 ± 0.0064 | 0.0005 ± 0.033 | -0.03 ± 0.092 | -0.158 ± 0.016 | 0.0645 ± 0.053 | 0.049 ± 0.096 | 0.0505 ± 0.094 | 0.0175 ± 0.13 | -0.027 ± 0.067 | -0.035 ± 0.023 | -0.004 ± 0.0057 | -0.0375 ± 0.03 | -0.038 ± 0.0085 | -0.029 ± 0.055 | -0.039 ± 0.0028 | -0.02 ± 0.025 | -0.0595 ± 0.0078 | -0.072 ± 0.042 | -0.051 ± 0.014 | -0.0425 ± 0.015
